PMC9186373, “Design, synthesis, and biological evaluation of novel carbazole derivatives as potent DNMT1 inhibitors with reasonable PK properties” (Journal of Enzyme Inhibition and Medicinal Chemistry, 2022)
Where two headings read alike, the source gives them in different places.

Key:
[1] = test system: EZH2; experiment: Methylation inhibition assay (AlphaLisa), EZH2; type: biochemical; settings: 50 µM; for inhibitory activity against EZH2: Figure 3; for Relative selectivity index of DNMT1 vs EZH2: 1 - selected enzyme inhibition/DNMT1 inhibition
Experimental: (§1) All the compounds were first screened using an ELISA EpiQuik DNA methyltransferase (DNMT) activity/inhibitor assay kit (Epigentek). To measure the effects of the compounds on human DNMT1 activity, 200 nM purified DNMT1 was incubated with 50 µM and 100 µM of the different compounds and S-adenosylmethionine in the DNMT assay buffer in the assay plate at 37 °C for 2 h[36]. Next, every sample was incubated with the capture and detection antibody, followed by incubation with developer solution for 10 min at room temperature. The absorbance was measured at 450 nm using a POLARstar Omega microplate reader (BMG). S-Adenosylhomocysteine (AdoHcy) was used as a positive control. Methylation inhibition assays for EZH2, LSD, and G9a were performed in modified Tris, pH 9.0, buffer using AlphaLisa technology. An amount of 10 µL of the reaction system contained a corresponding concentration of SAM (Sigma) (EZH2 50 µM, LSD 50 µM, and G9a 50 µM), which was the Km value in each enzymatic reaction, plus 100 nM biotinylated peptide H3 (1–21) (synthesis by GLChina) and the relevant enzyme concentration (0.03 nM EZH2, 0.03 nM LSD, and 0.03 nM G9a). The proteins were preincubated with various compound concentrations for 15 min at room temperature before the substrate and SAM were added. After 60 min of incubation at room temperature, acceptor and donor AlphaLisa beads were added according to the manufacturer’s recommendations. The signals were read in Alpha mode with an EnSpire multimode plate reader (PerkinElmer). IC50 values were derived by fitting the data for the inhibition percentage to a dose-response curve by non-linear regression in GraphPad Prism 5.0[20].
(§2) In addition to DNMT1, there are many other methyltransferases that can bind with S-adenosyl-L-methionine (SAM) to facilitate transmethylation reactions[24]^,[25]. To investigate the selectivity of these potent compounds for DNMT1, we then evaluated the inhibitory activities against DNMT1 and other important methyltransferases at the concentration of 50 µM, including DNMT3A/3L, DNMT3B/3L, and other SAM-dependent enzymes[1]^,[2]^,[26], such as EZH2[27], LSD1[28], G9a (histone H3 lysine 9 methyltransferase)[29].
(§3) 493 Relative selectivity index
(§4) 494 Relative selectivity index of DNMT1 is calculated by formula: DNMT1-selectivity
(§5) 495 index =1 - selected enzyme inhibition/DNMT1 inhibition. The closer
(§6) 496 that this value is to 1 or even more than 1, the better DNMT1-selectivity the of the
(§7) 498 Table S1. Relative selectivity index of DNMT1
Cpd. […]

[2] = target: DNMT1 (Homo sapiens, UniProt P26358); experiment: H3-labelled radioactive methylation assay; type: biochemical; settings: H3-labeled radioactive methylation assay; 40 nM DNMT1
Method in brief: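 DNMT1 (40 nM) was preincubated with a compound range for 15 min at room temperature, then given 0.1 µM ^3H-SAM and 0.25 µg/mL poly(dI-dC)·poly(dI-dC) in 50 mM Tris-HCl pH 8.0, 1 mM DTT, 5% glycerol, 100 µg/mL BSA. After 60 min at 37 °C, filter-bound radioactivity was counted by scintillation. IC50 was taken from a non-linear dose-response fit.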

[3] = test system: A549 (human lung cancer cells); experiment: MTT assay, A549; type: cell-based
Experimental: (§8) The human lung cancer cells (A549) and human colon cancer cells (HCT116) were cultured in an RPMI-1640 medium containing 10% FBS, 100 U/mL streptomycin, and 100 U/mL penicillin at 37 °C in a humidified atmosphere with 5% CO2. All compounds were dissolved in DMSO and stock solutions were stored at −20 °C. Reagents were freshly diluted to the marked concentrations with a culture medium before use. DMSO concentration in experimental conditions never exceeded 0.1% (v/v). All cell lines were provided by the cell laboratory, School of pharmaceutical sciences, Guangzhou Medical University.
(§9) Cell viability was detected using an MTT assay kit. Cells were seeded into 96-well plates at a density of ∼1.0 × 10^4/well. 24 h later, sextuplicate wells were treated with media and new compounds at a fixed concentration (50 µM). After 24, 48, and 72 h, the drug-containing medium was replaced by a 100 µL fresh medium with 5 mg/mL MTT solution. After 4 h of incubation, the medium with MTT was removed, and 100 µL of DMSO was added to each well. The plates were gently agitated until the purple formazan crystals were dissolved, and the OD490 was determined using a […] (Olympus BX53, Japan). The data were calculated and plotted as the percent viability compared to the control.

[4] = test system: HCT116 (human colon cancer cells); experiment: MTT assay, HCT116; type: cell-based
Experimental: as §8, §9

[5] = test system: DNMT3A/3L; experiment: Methyltransferase enzymatic selectivity profiling, DNMT3A/3L; type: biochemical; settings: 1 - selected enzyme inhibition/DNMT1 inhibition; 50 µM
Experimental: as §2
(§10) Here, the selectivity of non-nucleoside DNMT1 inhibitors is somewhat predictable because other methyltransferases mentioned above catalyse different substrates and share very low homology with DNMT1, even in their catalytic domain[30–32]. Subsequently, the screened compounds were evaluated in a dose-dependent assay against HCT116 (human colon cancer cell line) and A549 (human lung carcinoma cell line).
as §3, §4, §5, §6, §7
Cpd. […]

[6] = test system: human DNMT1; experiment: ELISA EpiQuik DNA methyltransferase (DNMT) activity/inhibitor assay; type: biochemical; settings: 200 nM purified DNMT1, EpiQuik kit; for Inh% at 50 μM: 50 μM compound; for Inh% at 100 μM: 100 μM compound
Method in brief: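 Purified human DNMT1 (200 nM) was incubated 2 h at 37 °C with SAM and compound at 50 µM and 100 µM. Methylation was detected by antibody-based ELISA read at 450 nm.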

[7] = test system: LSD1; experiment: Methylation inhibition assay (AlphaLisa), LSD1; type: biochemical; settings: 1 - selected enzyme inhibition/DNMT1 inhibition; 50 µM
Experimental: as §1, §2, §3, §4, §5, §6, §7
Cpd. […]

[8] = test system: G9a (histone H3 lysine 9 methyltransferase); experiment: Methylation inhibition assay (AlphaLisa), G9a; type: biochemical; settings: 50 µM; for inhibitory activity against G9a: Figure 3; for Relative selectivity index of DNMT1 vs G9a: 1 - selected enzyme inhibition/DNMT1 inhibition
Experimental: as §1, §2, §3, §4, §5, §6, §7
Cpd. […]

[9] = test system: DNMT3B/3L; experiment: Methyltransferase enzymatic selectivity profiling, DNMT3B/3L; type: biochemical; settings: 1 - selected enzyme inhibition/DNMT1 inhibition; 50 µM
Experimental: as §2, §10, §3, §4, §5, §6, §7
Cpd. […]

[10] = 24 h, read-out: Inh % at 50 μM, A549, 24 h
[11] = 48 h, read-out: Inh % at 50 μM, A549, 48 h
[12] = 72 h, read-out: Inh % at 50 μM, A549, 72 h
[13] = HCT-116, 24 h, read-out: Inh % at 50 μM, HCT116, 24 h
[14] = HCT-116, 48 h, read-out: Inh % at 50 μM, HCT116, 48 h
[15] = HCT-116, 72 h, read-out: Inh % at 50 μM, HCT116, 72 h

Sequence of DNMT1 (P26358 whole entry): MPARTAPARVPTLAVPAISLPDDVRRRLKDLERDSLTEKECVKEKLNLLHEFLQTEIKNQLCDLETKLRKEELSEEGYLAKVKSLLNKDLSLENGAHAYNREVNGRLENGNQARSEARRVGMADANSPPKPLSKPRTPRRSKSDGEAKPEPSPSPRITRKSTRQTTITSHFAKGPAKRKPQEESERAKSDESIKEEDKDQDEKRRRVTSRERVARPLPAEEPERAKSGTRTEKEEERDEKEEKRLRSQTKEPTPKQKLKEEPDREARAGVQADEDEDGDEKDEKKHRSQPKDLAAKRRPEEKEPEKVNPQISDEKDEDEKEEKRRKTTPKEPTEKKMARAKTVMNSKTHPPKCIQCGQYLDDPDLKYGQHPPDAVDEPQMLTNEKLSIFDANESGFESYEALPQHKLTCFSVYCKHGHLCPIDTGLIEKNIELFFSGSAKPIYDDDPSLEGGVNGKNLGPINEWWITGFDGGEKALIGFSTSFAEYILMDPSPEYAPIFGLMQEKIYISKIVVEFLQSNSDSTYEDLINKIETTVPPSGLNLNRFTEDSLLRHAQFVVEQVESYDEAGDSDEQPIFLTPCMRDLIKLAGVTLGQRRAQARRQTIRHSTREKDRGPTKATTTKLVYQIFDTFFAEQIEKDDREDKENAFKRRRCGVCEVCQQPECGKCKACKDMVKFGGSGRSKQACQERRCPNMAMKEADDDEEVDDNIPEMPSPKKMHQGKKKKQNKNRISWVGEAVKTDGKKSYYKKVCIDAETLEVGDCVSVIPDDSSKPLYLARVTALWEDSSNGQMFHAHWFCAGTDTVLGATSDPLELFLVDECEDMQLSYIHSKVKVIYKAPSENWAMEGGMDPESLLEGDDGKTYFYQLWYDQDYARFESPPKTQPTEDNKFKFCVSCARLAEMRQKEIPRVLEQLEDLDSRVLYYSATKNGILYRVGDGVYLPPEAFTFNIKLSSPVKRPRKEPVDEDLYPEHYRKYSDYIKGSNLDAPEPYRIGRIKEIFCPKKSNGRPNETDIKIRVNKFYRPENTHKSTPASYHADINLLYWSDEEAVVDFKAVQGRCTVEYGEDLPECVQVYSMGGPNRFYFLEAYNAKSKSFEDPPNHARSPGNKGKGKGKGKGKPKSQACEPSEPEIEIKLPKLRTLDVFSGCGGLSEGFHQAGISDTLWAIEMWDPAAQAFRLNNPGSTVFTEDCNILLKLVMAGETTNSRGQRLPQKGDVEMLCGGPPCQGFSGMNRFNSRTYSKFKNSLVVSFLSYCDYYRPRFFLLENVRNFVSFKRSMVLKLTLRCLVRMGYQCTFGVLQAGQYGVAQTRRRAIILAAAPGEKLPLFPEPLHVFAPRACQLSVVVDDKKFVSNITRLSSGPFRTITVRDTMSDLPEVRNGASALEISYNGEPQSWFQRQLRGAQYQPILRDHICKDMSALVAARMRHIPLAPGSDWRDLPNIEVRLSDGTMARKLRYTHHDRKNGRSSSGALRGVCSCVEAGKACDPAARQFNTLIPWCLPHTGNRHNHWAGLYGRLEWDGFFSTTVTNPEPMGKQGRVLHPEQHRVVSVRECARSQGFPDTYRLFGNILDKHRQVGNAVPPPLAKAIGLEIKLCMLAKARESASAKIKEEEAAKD

| IC50 [2] [µM] | Relative selectivity index of DNMT1 vs DNMT 3A/3L [5] | Inh% at 50 μM [6] [%] | Inh% at 100 μM [6] [%] | inhibitory activity against G9a [8] | Relative selectivity index of DNMT1 vs G9a [8] | Relative selectivity index of DNMT1 vs DNMT 3B/3L [9] | SMILES | inhibitory activity against EZH2 [1] | Relative selectivity index of DNMT1 vs EZH2 [1] | inhibition at 50 µM [3, 10] [%] | inhibition at 50 µM [3, 11] [%] | inhibition at 50 µM [3, 12] [%] | inhibition at 50 µM [4, 13] [%] | inhibition at 50 µM [4, 14] [%] | inhibition at 50 µM [4, 15] [%] | Relative selectivity index of DNMT1 vs LSD1 [7] |
| --- | --- | --- | --- | --- | --- | --- | --- | --- | --- | --- | --- | --- | --- | --- | --- | --- |
| 4.9 | 0.04 | 99 | 100 | nearly no inhibitory activities | 0.9 | 0.03 | CC(C)NCC(O)COC(Cn1c2ccc(F)cc2c2cc(F)ccc21)Cn1c2ccc(F)cc2c2cc(F)ccc21 (centres unmarked) [WK-22, 1-((1,3-Bis(3,6-difluoro-9H-carbazol-9-yl)propan-2-yl)oxy)-3-(isopropylamino)propan-2-ol] | nearly no inhibitory activities | 0.96 | 64.3 | 98 | 95.7 | 77.6 | 91.8 | 97.4 | 0.02 |
| 5 | 0.06 | 99 | 100 | nearly no inhibitory activities | 0.89 | 0.02 | CC(C)NCC(O)COC(Cn1c2ccccc2c2cc(F)ccc21)Cn1c2ccccc2c2cc(F)ccc21 (centres unmarked) [WK-23, 1-((1,3-bis(3-fluoro-9H-carbazol-9-yl)propan-2-yl)oxy)-3-(isopropylamino)propan-2-ol] | nearly no inhibitory activities | 0.85 | 75.9 | 58.1 | 93.6 | 87.7 | 92.9 | 97.5 | 0.2 |
